The target in one test is HLA-C0702 (Homo sapiens, UniProt P10321). In words: Competitive peptide binding assay, CIR-C0702.
Another test concerns the target HLA-C0102 (Homo sapiens, UniProt P10321, A176E/A330V/A35S/A97T/C350S/D114A/D33F/L171W/L180R/L218V/M285V/M309V/M331V/P208H/Q277E/Q291P/R121W/R243W/R30K/S123C/S140Y/S297R/T329A/T363A/V272M/V319A). In words: Competitive peptide binding assay, CIR-C0102. Conditions: for inhibition at 5 µM / inhibition at 15 µM: read-out: Inhibition % of Cy5-reference peptide binding. On the procedure: (§1) Then, competitive peptide binding assays were performed.

The target in the next test is HLA-C0401 (Homo sapiens, UniProt P10321, A176E/A330V/A35S/A73E/C25G/C350S/D138N/D33S/E299K/L171W/L180R/L218V/M285V/M309V/M331V/N104K/P208H/Q277E/Q291P/R243W/R38W/S101N/S123F/S140F/S297R/S48A/T329A/T363A/V319A/V327M). The test can be described thus: Competitive peptide binding assay, CIR-C0401. Particulars: HMy2.CIR-C0401 cells, reference Cy5-[…], class from inhibition at 5 and 15 μM, flow cytometry MFI; read-out: Binding affinity with HLA-C0401. As to the method: as §1

The target in the next test is HLA-C0602 (Homo sapiens, UniProt P10321, A176E/A330V/C350S/L171W/L180W/L218V/M285V/M309V/M331V/N104K/P208H/Q277E/Q291P/R121W/S101N/S123Y/S297R/T329A/T363A/V319A/V328M). In words: Competitive peptide binding assay, CIR-C0602.
In a further test the target is HLA-C0801 (Homo sapiens, UniProt P10321, A176T/A330V/A97T/C350S/D114A/D138N/D33Y/E201K/E299G/L171W/L218V/M285V/M309V/M331V/P208H/Q277E/Q291P/R59Q/S123Y/S140F/S297R/S48A/T329A/T363A/V319A/V328M). The test can be described thus: Competitive peptide binding assay, CIR-C0801. Conditions: HMy2.CIR-C0801 cells, reference Cy5-[…], class from inhibition at 5 and 15 μM, flow cytometry MFI; read-out: Binding affinity with HLA-C0801. On the procedure: as §1

Another test concerns the target HLA-C0302 (Homo sapiens, UniProt P10321, A176E/A330V/A97T/C25G/C350S/D114A/D33Y/E197K/L127V/L171W/L218V/M285V/M309V/M331V/P208H/Q277E/Q291P/R243W/R45H/S123Y/S297R/S48A/T118I/T187L/T329A/T363A/V319A). The test can be described thus: Competitive peptide binding assay, CIR-C0302. Conditions: HMy2.CIR-C0302 cells, reference Cy5-[…], class from inhibition at 5 and 15 μM, flow cytometry MFI; read-out: Binding affinity with HLA-C0302. As to the method:
as §1

In another test the target is HLA-C0304 (Homo sapiens, UniProt P10321, A176E/A330V/A97T/C25G/C350S/D114A/D33Y/E197K/L119I/L127V/L171W/L218V/M285V/M309V/M331V/P208H/Q277E/Q291P/R243W/R45H/S123Y/S140Y/S297R/S48A/T118I/T187L/T329A/T363A/V319A). In words: Competitive peptide binding assay, CIR-C0304. Conditions: HMy2.CIR-C0304 cells, reference Cy5-[…], class from inhibition at 5 and 15 μM, flow cytometry MFI; read-out: Binding affinity with HLA-C0304. As to the method: as §1

[1] abbreviates: HMy2.CIR-C0102 cells, reference Cy5-[…], class from inhibition at 5 and 15 μM, flow cytometry MFI, read-out: Binding affinity with HLA-C0102.

In article PMC12133982, “Predominant T-cell epitopes of SARS-CoV-2 restricted by multiple prevalent HLA-B and HLA-C allotypes in Northeast Asia” (Frontiers in Immunology, 2025) one finds IC50 and inhibition data, which are given here for 14 compounds.

Read-outs that look alike come from different tables or passages of the source. Peptide text beside a SMILES is read from it. A value given as a limit tells only on which side of the number the result lay.

Consider `CC[C@H](C)[C@H](NC(=O)[C@H](CCCNC(=N)N)NC(=O)[C@H](CC(C)C)NC(=O)[C@H](CCSC)NC(=O)[C@H](CC(N)=O)NC(=O)[C@@H]1CCCN1C(=O)[C@H](CCSC)NC(=O)[C@H](C)NC(=O)[C@@H](N)CCCNC(=N)N)C(=O)O` [Epitope M30] (H-RAMPNMLRI-OH; N-terminus and C-terminus assumed), for which the IC50 is > 15 µM on HLA-C0702; 5 to 15 µM at HLA-C0102 (setting [1]); > 15 µM on HLA-C0401; < 5 µM on HLA-C0602; > 15 µM at HLA-C0801.

With `C[C@@H](O)[C@H](NC(=O)[C@H](CCC(N)=O)NC(=O)[C@H](CC(=O)O)NC(=O)[C@H](Cc1c[nH]c2ccccc12)NC(=O)[C@H](Cc1ccc(O)cc1)NC(=O)[C@H](CCCCN)NC(=O)[C@H](Cc1ccccc1)NC(=O)[C@@H](N)Cc1ccc(O)cc1)C(=O)N[C@@H](Cc1ccc(O)cc1)C(=O)O` [Epitope M122] (H-YFKYWDQTY-OH; N-terminus and C-terminus assumed), the IC50 at HLA-C0702 is 5 to 15 µM; at HLA-C0102 (setting [1]) it was > 15 µM; on HLA-C0602, > 15 µM; at HLA-C0302 it was > 15 µM; at HLA-C0304, > 15 µM.

On to `CC[C@H](C)[C@H](NC(=O)[C@H](C)NC(=O)[C@H](CC(C)C)NC(=O)[C@@H](NC(=O)[C@@H](N)C(C)C)[C@@H](C)O)C(=O)N[C@@H](CC(C)C)C(=O)N[C@H](C(=O)N[C@@H](C)C(=O)N[C@@H](CC(C)C)C(=O)O)[C@@H](C)O` [Epitope M3, VTLAILTAL] (H-VTLAILTAL-OH; N-terminus and C-terminus assumed), for which the IC50 is 5 to 15 µM on HLA-C0702, < 5 µM at HLA-C0102 (setting [1]), < 5 µM on HLA-C0401 and > 15 µM at HLA-C0602. Moreover, the inhibition at 5 µM at HLA-C0102 worked out at 69.2%. Moreover, on HLA-C0102, the inhibition at 15 µM stood at 87.4%.

Turning to `CC[C@H](C)[C@H](NC(=O)[C@@H](NC(=O)CNC(=O)[C@H](CC(N)=O)NC(=O)[C@H](CO)NC(=O)[C@H](CC(=O)O)NC(=O)[C@H](C)NC(=O)[C@@H](N)CCSC)[C@@H](C)O)C(=O)N[C@H](C(=O)N[C@H](C(=O)O)C(C)C)[C@@H](C)O` [Epitope M48] (H-MADSNGTITV-OH; N-terminus and C-terminus assumed), the results for the IC50 at HLA-C0102 (setting [1]), at HLA-C0602 and at HLA-C0304 were > 15 µM, > 15 µM and 5 to 15 µM, respectively.

Regarding `C[C@H](NC(=O)[C@H](CO)NC(=O)[C@H](C)NC(=O)[C@H](CO)NC(=O)[C@@H]1CCCN1C(=O)[C@H](C)NC(=O)[C@@H](N)Cc1ccccc1)C(=O)N[C@@H](Cc1ccccc1)C(=O)N[C@@H](Cc1ccccc1)C(=O)O` [Epitope M16] (H-FAPSASAFF-OH; N-terminus and C-terminus assumed), the IC50 on HLA-C0702 was > 15 µM; at HLA-C0102 (setting [1]) it was 5 to 15 µM; on HLA-C0401, 5 to 15 µM; at HLA-C0602, > 15 µM; at HLA-C0302 it was < 5 µM. Also, the inhibition at 5 µM on HLA-C0102 was determined as 37%. Also, the inhibition at 15 µM at HLA-C0102 stood at 81.4%.

For `CC(C)[C@H](NC(=O)CNC(=O)[C@H](CCCNC(=N)N)NC(=O)[C@@H](NC(=O)[C@H](Cc1ccccc1)NC(=O)[C@H](CO)NC(=O)[C@@H](N)CC(N)=O)[C@@H](C)O)C(=O)N[C@@H](Cc1ccc(O)cc1)C(=O)N[C@@H](Cc1ccc(O)cc1)C(=O)O` [Epitope M129] (H-NSFTRGVYY-OH; N-terminus and C-terminus assumed), the IC50 at HLA-C0102 (setting [1]) was > 15 µM. Further, at HLA-C0102, the inhibition at 5 µM stood at 11.3% and the inhibition at 15 µM came to 34.3%. Further, on HLA-C0302, the IC50 is > 15 µM.

With `CC[C@H](C)[C@H](NC(=O)[C@H](CCCNC(=N)N)NC(=O)[C@H](CO)NC(=O)[C@H](CCSC)NC(=O)CNC(=O)[C@@H](N)Cc1ccccc1)C(=O)NCC(=O)N[C@@H](CCSC)C(=O)N[C@@H](CCC(=O)O)C(=O)N[C@H](C(=O)O)C(C)C` [Epitope M19] (H-FGMSRIGMEV-OH; N-terminus and C-terminus assumed), the IC50 at HLA-C0702 was > 15 µM; on HLA-C0102 (setting [1]) it was > 15 µM; on HLA-C0602, < 5 µM; at HLA-C0801, > 15 µM.

Regarding `CSCC[C@H](NC(=O)[C@H](CO)NC(=O)[C@H](CCCNC(=N)N)NC(=O)[C@@H](NC(=O)[C@H](CCCNC(=N)N)NC(=O)[C@H](C)NC(=O)[C@H](Cc1ccccc1)NC(=O)[C@H](CC(C)C)NC(=O)[C@@H](N)CCCNC(=N)N)[C@@H](C)O)C(=O)O` [Epitope M41] (H-RLFARTRSM-OH; N-terminus and C-terminus assumed), the IC50 on HLA-C0702 is > 15 µM. At HLA-C0102, the IC50 is > 15 µM, the inhibition at 5 µM amounted to 9.56% and the inhibition at 15 µM was 35.7%. For the same compound, the IC50 at HLA-C0801 fell in the range of 5 to 15 µM.

`CC(C)[C@H](NC(=O)[C@H](CC(N)=O)NC(=O)[C@H](Cc1ccc(O)cc1)NC(=O)[C@H](C)NC(=O)[C@@H](N)CCCCN)C(=O)N[C@H](C(=O)N[C@@H](CCC(N)=O)C(=O)N[C@@H](C)C(=O)N[C@@H](Cc1ccccc1)C(=O)O)[C@@H](C)O` [Epitope M11] (H-KAYNVTQAF-OH): the IC50 at HLA-C0702 is 5 to 15 µM; at HLA-C0102 (setting [1]), 5 to 15 µM; on HLA-C0401 it was > 15 µM; at HLA-C0602, < 5 µM; on HLA-C0302, > 15 µM.

Take `CC(C)C[C@H](NC(=O)[C@H](C)NC(=O)[C@H](C)NC(=O)CNC(=O)[C@H](C)NC(=O)CNC(=O)[C@H](Cc1ccccc1)NC(=O)[C@@H](NC(=O)[C@@H](N)Cc1c[nH]c2ccccc12)[C@@H](C)O)C(=O)O` [Epitope M33, WTFGAGAAL] (H-WTFGAGAAL-OH; N-terminus and C-terminus assumed): the IC50 on HLA-C0302 is 5 to 15 µM; on HLA-C0304, > 15 µM.

Take `CC[C@H](C)[C@H](NC(=O)[C@H](C)NC(=O)CNC(=O)[C@@H](NC(=O)[C@H](Cc1ccc(O)cc1)NC(=O)[C@@H](NC(=O)[C@@H](N)CC(C)C)[C@@H](C)O)[C@@H](C)O)C(=O)N[C@@H](CCCCN)C(=O)N[C@@H](CC(C)C)C(=O)O` [Epitope M15] (H-LTYTGAIKL-OH; N-terminus and C-terminus assumed): the IC50 on HLA-C0702 was > 15 µM; on HLA-C0602 it was < 5 µM; on HLA-C0302 it was > 15 µM; at HLA-C0801 it was < 5 µM.

Regarding `CC[C@H](C)[C@H](NC(=O)[C@H](CCC(N)=O)NC(=O)[C@H](CC(C)C)NC(=O)[C@H](C)NC(=O)[C@H](C)N)C(=O)N1CCC[C@H]1C(=O)N[C@@H](Cc1ccccc1)C(=O)N[C@@H](C)C(=O)N[C@@H](CCSC)C(=O)O` [Epitope M66] (H-AALQIPFAM-OH; N-terminus and C-terminus assumed), the IC50 on HLA-C0602 is 5 to 15 µM; at HLA-C0304, < 5 µM.

With `CC[C@H](C)[C@H](NC(=O)[C@H](Cc1ccc(O)cc1)NC(=O)[C@H](CC(C)C)NC(=O)[C@H](Cc1ccccc1)NC(=O)[C@H](CCCNC(=N)N)NC(=O)[C@H](CC(N)=O)NC(=O)[C@H](CCCNC(=N)N)NC(=O)[C@H](CC(N)=O)NC(=O)[C@H](C)NC(=O)[C@@H](N)Cc1ccc(O)cc1)C(=O)O` [Epitope M73] (H-YANRNRFLYI-OH; N-terminus and C-terminus assumed), the IC50 on HLA-C0102 (setting [1]) is > 15 µM; on HLA-C0602 it was < 5 µM; at HLA-C0302 it was 5 to 15 µM. The inhibition at 5 µM on HLA-C0102 amounted to 23.5%. Moreover, on HLA-C0102, the inhibition at 15 µM came to 47.8%.

For `CC(C)C[C@H](NC(=O)[C@H](C)NC(=O)[C@@H](NC(=O)[C@H](Cc1ccccc1)NC(=O)[C@H](Cc1c[nH]c2ccccc12)NC(=O)[C@H](CO)NC(=O)[C@H](C)NC(=O)[C@@H](NC(=O)[C@@H](N)CC(N)=O)[C@@H](C)O)[C@@H](C)O)C(=O)O` [Epitope M56, NTASWFTAL] (H-NTASWFTAL-OH; N-terminus and C-terminus assumed), the values for the IC50 on HLA-C0102 (setting [1]), at HLA-C0602 and at HLA-C0801 were > 15 µM, > 15 µM and 5 to 15 µM, respectively. On HLA-C0102, the inhibition at 5 µM turned out to be 17.3%. In addition, the inhibition at 15 µM on HLA-C0102 was 46.5%.
